These are literature values, as cited in patent US20240066028A1, “COMPOSITIONS FOR IMPROVED DELIVERY OF CGRP INHIBITORS” (Pfizer Ireland Pharmaceuticals, priority 2020, published 2024).

The conditions of the data set: FAO/WHO report; cited from earlier work.

Turning to sucrose dodecanoate, the NOAEL was 20-30 grams/kilogram/day.
